Article PMC11031283 (ACS synthetic biology, 2024)

Target: EncM (Streptomyces maritimus, UniProt Q9KHK2)
Test: LC-MS product formation, low activity
Format: biochemical
Conditions: in vitro purified enzyme; not detected in lysate

SMILES: CCCCCc1cc(O)c(C/C=C(\C)CCC=C(C)C)c(O)c1C(=O)O [compound 3, cannabigerolic acid]
- LC-MS product formation, low activity: several other enzymes had low activity not detected in lysate assays, including EncM
